Experimental data: US20260207606A1, “DOSING SCHEDULE OF A SOLID DISPERSION OF A HER2 INHIBITOR” (Boehringer Ingelheim International GmbH, priority 2022, published 2026)

How the values were obtained:
NSCLC = assay: Phase Ia dose escalation trial: tumour response according to RECIST v1.1 in NSCLC patients; assay type: in vivo, human; conditions: for Best overall response (RECIST 1.1): Partial response, % / Best overall response (RECIST 1.1): Progressive disease, % / Best overall response (RECIST 1.1): Stable disease, % / Best overall response (RECIST 1.1): Complete response, % / Best overall response (RECIST 1.1): Non-CR/Non-PD, % / Best overall response (RECIST 1.1): Not evaluable, %: regardless of confirmation, data lock 16 Mar. 2023
Text: Tumour assessments should include computed tomography (CT) scans of the chest, abdomen/pelvis (or PET/CT) and a brain MRI at screening. If clinically indicated, imaging of any other known or suspected sites of disease (e.g. bone) using an appropriate method (CT scan, MRI, PET/CT, or bone scan) should be performed. The same radiographic procedure must be used throughout the trial. Assessments will be performed by the investigator at screening (≤28 days prior to initiation of treatment), every 2 cycles (6 weeks ±5 days), at the end-of-treatment (EOT) visit (if not performed within the previous 3 weeks), and at the discretion of the investigator, and copies may be collected by the sponsor or designee. Wherever possible the assessment schedule should not be changed, but if there is an interruption or delay to treatment, alteration of the tumour assessment schedule to align with clinical assessments is allowed. Additional unscheduled tumour assessments may be performed at the discretion of the investigator. If the patient stops trial medication for a reason other than progression, tumour assessment according to RECIST v1.1 continues until progression (or until one of the following occurs; death, lost to follow-up, end of the trial).
Tumour response is evaluated according to RECIST Version 1.1 (Eisenhauer E A, Therasse P, Bogaerts J, Schwartz L H, Sargent D, Ford R, et al. New response evaluation criteria in solid tumours: revised RECIST guideline (version 1.1). Eur J Cancer. 2009; 45:228-247). RECIST 1.1 is used for a) whole-body assessment (classical RECIST 1.1) and b) the tumour assessment of non-CNS areas. The assessment according to classical RECIST 1.1 by the investigator and/or the local radiologist is the basis for continuation or discontinuation of the trial in an individual patient (in addition to safety). No whole-body RECIST assessment is performed in the dose escalation part.

[1] = Phase Ia dose escalation trial: pharmacokinetics, plasma exposure; assay type: in vivo; conditions: increasing doses, BID and QD
Method: Pharmacokinetic (PK) profiles of compound (1) are investigated after the first and after repeated doses. Standard PK parameters are calculated, if data allows and if scientifically reasonable. […] Statistical analyses are performed.
If deemed necessary, further PK parameters might be used for these assessments.
Preliminary PK analyses can be performed as necessary for DEC decisions. The final preliminary analysis are performed at the end of the dose escalation part prior to proceeding to the dose expansion part. In contrast to the final PK analysis, the preliminary analyses are based on planned sampling times rather than on actual times; no supplementary patient information, e.g. on AEs or concomitant medication, is used in these analyses, and the outputs are not validated. Minor discrepancies between preliminary and final results may therefore occur.

[2] = system: patients with HER2 mutation positive advanced/metastatic NSCLC; assay: Phase Ib dose expansion, Cohort 1: safety (treatment related adverse events); assay type: in vivo, human; conditions: 120/240 mg QD, 42 patients
Text: (§1) This Example focuses on the dose expansion part (Phase Ib) of the Phase I study described in Example 8. Approximately 275 patients diagnosed with advanced or metastatic refractory NSCLC harbouring mutations in the HER2 gene are enrolled. Patients are divided into 5 cohorts according to the main inclusion criteria listed below.
(§2) The trial objectives of Phase Ib include: • For cohort 1, cohort 2, and cohort 5, assess objective tumour response rate by central independent review; • For cohort 3, assess objective tumour response rate by investigator assessment; • For all cohorts, further investigate the safety, tolerability, and PK of the investigated doses of zongertinib in patients with HER2 mutation positive advanced/metastatic NSCLC; • For all cohorts, continue evaluating safety, and patient-reported outcomes.
The main inclusion criteria include: • Patients with a confirmed diagnosis of an advanced, unresectable and/or metastatic non-haematologic malignancy with at least one measurable lesion; • Availability and willingness to provide a sample of archival formalin-fixed paraffin embedded (FFPE) tumour tissue material; • Patients must be willing to comply with the blood sampling and tumour biopsy requirements for PK, PD and biomarker analyses; • For cohort 1: Patients with documented HER2 Tyrosine Kinase Domain (TKD) mutation positive non-squamous NSCLC who had received, in the advanced/metastatic setting, at least one line of systemic therapy that includes a platinum-based combination chemotherapy; • For cohort 2: Patients with documented HER2 Tyrosine Kinase Domain (TKD) mutation positive non-squamous NSCLC who have not received any previous lines of therapy (neo or adjuvant chemo, chemoradio or radiotherapy is permitted if at least 6 months have elapsed prior to disease progression); • For cohort 3: Patients with documented HER2 Non-TKD mutation positive NSCLC, and HER2 TKD mutation positive squamous NSCLC, who had received in the advanced/metastatic setting at least one line of systemic therapy that includes a platinum-based combination chemotherapy; • Patients in these cohorts 1 to 4 must have not received prior therapy with HER2 directed antibody-drug conjugates (ADC); • For cohort 5: Patients with documented HER2 TKD mutation positive non-squamous NSCLC who had received prior therapy with HER2 directed ADC in the advanced/metastatic setting and developed disease progression during or after completing this therapy.
The treatment consists of reiterated cycles of 3 weeks as long as the patient has clinical benefit or until undue drug toxicity or withdrawal of consent, whichever occurs first.

[3] = system: HER2 Tyrosine Kinase Domain (TKD) mutation positive non-squamous NSCLC; assay: Phase Ib dose expansion, Cohort 1: objective response and disease control (RECIST 1.1); assay type: in vivo, human; conditions: 120/240 mg QD
Text: as §1, §2
The primary endpoints of Phase Ib include: • For cohort 1, 2, and 5: objective response (OR) assessed by independent central review, according to Response Evaluation Criteria In Solid Tumors (RECIST) version 1.1; • For cohort 3: objective response (OR) by investigator.
For Cohort 1, 2, and 5: • Duration of objective response (DoR) according to RECIST 1.1 by central independent review; • Disease control (DC) according to RECIST 1.1 by central independent review; • Progression-free survival (PFS) according to RECIST 1.1 by central independent review; […]

[4] = 5 NSCLC patients pre-treated with trastuzumab deruxtecan, data cut-off 17 Jul. 2023
[5] = 23 evaluable patients (received 2-5 cycles at cut-off)

C=CC(=O)NC1CCN(c2ncc3ncnc(Nc4ccc(Oc5ccc6c(c5)ncn6C)c(C)c4)c3n2)CC1 [compound (1), N-{1-[8-({3-methyl-4-[(1-methyl-1H-1,3-benzodiazol-5-yl)oxy]phenyl}amino)-[1,3]diazino[5,4-d]pyrimidin-2-yl]piperidin-4-yl}prop-2-enamide]
Best overall response (RECIST 1.1): Partial response, % (NSCLC; 180 mg QD, 5 NSCLC patients): 20.0% | Best overall response (RECIST 1.1): Progressive disease, % (NSCLC; 180 mg QD, 5 NSCLC patients): 0.0% | Best overall response (RECIST 1.1): Stable disease, % (NSCLC; 180 mg QD, 5 NSCLC patients): 60.0% | Best overall response (RECIST 1.1): Complete response, % (NSCLC; 240 mg QD, 5 NSCLC patients): 0.0% | Best overall response (RECIST 1.1): Non-CR/Non-PD, % (NSCLC; 240 mg QD, 5 NSCLC patients): 0.0% | Best overall response (RECIST 1.1): Not evaluable, % (NSCLC; 240 mg QD, 5 NSCLC patients): 60.0% | Best overall response (RECIST 1.1): Partial response, % (NSCLC; 240 mg QD, 5 NSCLC patients): 40.0% | Best overall response (RECIST 1.1): Progressive disease, % (NSCLC; 240 mg QD, 5 NSCLC patients): 0.0% | Best overall response (RECIST 1.1): Stable disease, % (NSCLC; 240 mg QD, 5 NSCLC patients): 0.0% | Best overall response (RECIST 1.1): Complete response, % (NSCLC; 300 mg QD, 5 NSCLC patients): 0.0% | Best overall response (RECIST 1.1): Non-CR/Non-PD, % (NSCLC; 300 mg QD, 5 NSCLC patients): 0.0% | Best overall response (RECIST 1.1): Not evaluable, % (NSCLC; 300 mg QD, 5 NSCLC patients): 80.0% | Best overall response (RECIST 1.1): Partial response, % (NSCLC; 300 mg QD, 5 NSCLC patients): 0.0% | Best overall response (RECIST 1.1): Progressive disease, % (NSCLC; 300 mg QD, 5 NSCLC patients): 0.0% | Best overall response (RECIST 1.1): Stable disease, % (NSCLC; 300 mg QD, 5 NSCLC patients): 20.0% | tumour shrinkage, mean (NSCLC; [4]): −22.5% | tumour shrinkage, median (NSCLC; [4]): −16.1% | tumour shrinkage, up to (NSCLC; [4]): −53% | Best overall response (RECIST 1.1): Complete response, % (NSCLC; BID Total, 11 NSCLC patients): 0.0% | Best overall response (RECIST 1.1): Non-CR/Non-PD, % (NSCLC; BID Total, 11 NSCLC patients): 0.0% | Best overall response (RECIST 1.1): Not evaluable, % (NSCLC; BID Total, 11 NSCLC patients): 0.0% | Best overall response (RECIST 1.1): Progressive disease, % (NSCLC; BID Total, 11 NSCLC patients): 0.0% | Best overall response (RECIST 1.1): Stable disease, % (NSCLC; BID Total, 11 NSCLC patients): 54.5% | Best overall response (RECIST 1.1): Complete response, % (NSCLC; QD Total, 21 NSCLC patients): 0.0% | Best overall response (RECIST 1.1): Non-CR/Non-PD, % (NSCLC; QD Total, 21 NSCLC patients): 0.0% | Best overall response (RECIST 1.1): Not evaluable, % (NSCLC; QD Total, 21 NSCLC patients): 38.1% | Best overall response (RECIST 1.1): Partial response, % (NSCLC; QD Total, 21 NSCLC patients): 28.6% | Best overall response (RECIST 1.1): Progressive disease, % (NSCLC; QD Total, 21 NSCLC patients): 4.8% | Best overall response (RECIST 1.1): Stable disease, % (NSCLC; QD Total, 21 NSCLC patients): 28.6% | median duration of response (Kaplan Meier estimates) (NSCLC; all treated patients with NSCLC): 6.9 months | dose proportionality of plasma exposure [1]: no apparent deviation from dose proportional pharmacokinetics | AEs leading to treatment discontinuation [2]: No AEs led to treatment discontinuation | TRAE diarrhea, all grades [2]: 29% | TRAE diarrhea, grade ≥3 [2]: 0% | TRAE dysgeusia, all grades [2]: 10% | TRAE dysgeusia, grade ≥3 [2]: 0% | TRAE increased aspartate aminotransferase, all grades [2]: 10% | TRAE increased aspartate aminotransferase, grade ≥3 [2]: 2% | TRAE low appetite, all grades [2]: 10% | TRAE low appetite, grade ≥3 [2]: 0% | TRAE rash, all grades [2]: 21% | TRAE rash, grade ≥3 [2]: 0% | Treatment related adverse events (TRAEs), all grades ([2]; Jul. 31, 2023): 67% | Treatment related adverse events (TRAEs), grade ≥3 ([2]; Jul. 31, 2023): 10% | DCR [3, 5]: 91% | ORR [3, 5]: 74% | responding patients on treatment at data cut-off [3]: All responding patients remained on treatment
